Measured values published in patent US20250235545A1, “POLYPEPTIDE CONJUGATE AND USE THEREOF” (SHANGHAI CHIXI BIOMEDICAL TECHNOLOGY CO., LTD, priority 2024, published 2025).
Read-outs that look alike come from different tables or passages of the source. Where a SMILES comes first, the peptide text is derived from it. The star is where a group is joined. X2 = CCCCN(CCc1c2c(nc3ccccc13)-c1cc3c(c(=O)n1C2)COC(=O)[C@]3(O)CC)*; X4 = CCCN(CCc1c2c(nc3ccccc13)-c1cc3c(c(=O)n1C2)COC(=O)[C@]3(O)CC)*; X5 = CC[C@@]1(O)C(=O)OCc2c1cc1n(c2=O)Cc2c-1nc1ccccc1c2CCN(CC(C)C)*; Propanoyl(3-maleimido) = O=C1C=CC(=O)N1CCC(=O)*; PEG6 = NCCOCCOCCOCCOCCOCCOCCC(=O)O

Assays:
[1] = Tumor homogenate activation efficiency, small cell lung cancer tissue (Example 28); format: in vitro ADME; conditions: pH 5.0, 37° C., 2 h; Table 5
Procedure, shortened: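 Polypeptide conjugate at 1 mg/ml in 50 mM MES, 250 mM NaCl, pH 5.0 incubated with 100 μg small cell lung cancer tissue homogenate at 37° C. for 2 h. HPLC quantified Belotecan release as Belotecan peak area over total area of Belotecan plus all Belotecan-containing compounds.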

[2] = system: colo320 colorectal cancer tumor model
Procedure, shortened: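 Dosing was once a week for four weeks, with saline as control, in randomized groups of three mice. Groups were formed after subcutaneous colo320 xenografts (7.5×10^6 cells, right chest) grew to ≥120 mm^3 in female 6–8-week-old BALB/c nude mice.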

[3] = MTD determination in mice (Examples 27, 36, 44); format: in vivo; conditions: female, mouse, in vivo, mice, monitored for 14 d; for MTD: read-out: MTD
Description: Test animals: 6-8 weeks old mice, all female; mice were grouped randomly, with six mice in each group, administered with drugs at different concentration gradients separately and monitored for 14 d. A mouse was euthanized at a loss of 20% of its initial weight and deemed to have died of poisoning.

[4] = system: sarcoma SJSA-1 tumor model; assay: Efficacy in animal model of sarcoma SJSA-1, 30 mg/kg once a week for two weeks (Example 40); format: in vivo, BALB/c mice; conditions: for SJSA-1 (sarcoma tissue) mean tumor volume (mm^3) Day 1 / SJSA-1 (sarcoma tissue) mean tumor volume (mm^3) Day 4 / SJSA-1 (sarcoma tissue) mean tumor volume (mm^3) Day 7 / SJSA-1 (sarcoma tissue) mean tumor volume (mm^3) Day 10 / Mouse weight (%) on Day 14 / SJSA-1 (sarcoma tissue) growth rate (%) on Day 14 / SJSA-1 (sarcoma tissue) mean tumor volume (mm^3) Day 14: 30 mg/kg once a week for two weeks
Protocol: Test objective: To further compare the antitumor efficacy of different polypeptide Linkers in an animal tumor model of sarcoma SJSA-1.
Test drug: Polypeptide conjugate and normal saline control group.
The control group was administered normal saline. Administration was performed once a week for two weeks.

[5] = Tumor homogenate activation efficiency, ovarian cancer tissue (Examples 28, 37); format: in vitro ADME; conditions: pH 5.0, 37° C., 2 h
Procedure, shortened: (§1)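 Each conjugate, dissolved at 1 mg/ml in acidic MES saline (pH 5.0), was exposed to 100 μg homogenate for 2 h at 37° C; released Belotecan was quantified by HPLC peak areas.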

[6] = Tumor homogenate activation efficiency, non-small cell lung cancer tissue (Examples 28, 37); format: in vitro ADME; conditions: pH 5.0, 37° C., 2 h
Procedure, shortened: as §1

[7] = 15 mg/kg once a week for four weeks, Table 3
[8] = 45 mg/kg once a week for four weeks, Table 3
[9] = Table 14 (Example 43), dose 45 mg/kg, once a week for four weeks, BALB/c mice
[10] = 15 mg/kg once a week for four weeks, Table 8
[11] = 45 mg/kg once a week for four weeks, Table 8

CC[C@@]1(O)C(=O)OCC2=C1C=C1c3nc4ccccc4c(CCN(C(=O)OCc4ccc(NC(=O)[C@H](CC(N)=O)NC(=O)[C@H](C)NC(=O)[C@H](C)NC(=O)CCOCCOCCOCCOCCOCCOCCNC(=O)CCN5C(=O)C=CC5=O)cc4)C(C)C)c3CN1C2 [MI-6PEG-AAN-PAB-Belotecan]
Percentage of release efficiency (%) Small cell lung cancer tissue (NCI-H841) [1]: 61.5% | Mouse weight (%) [2, 7]: +29% | colo320 (colorectal cancer cell) growth rate (%) [2, 7]: 1105.40% | colo320 (colorectal cancer cell) mean tumor volume (mm^3) [2, 7]: 1224.3 mm^3 | Mouse weight (%) [2, 8]: +6% | colo320 (colorectal cancer cell) growth rate (%) [2, 8]: 573.97% | colo320 (colorectal cancer cell) mean tumor volume (mm^3) [2, 8]: 635.7 mm^3 | Mouse weight (%) [2, 9]: +6% | colo320 (colorectal cancer cell) growth rate (%) [2, 9]: 573.97% | colo320 (colorectal cancer cell) mean tumor volume (mm^3) [2, 9]: 635.7 mm^3 | MTD ([3]; Table 15 (Example 44), six per group): 100 mg/kg | MTD ([3]; Table 4): 100 mg/kg | SJSA-1 (sarcoma tissue) mean tumor volume (mm^3) Day 1 [4]: 131.25 mm^3 | SJSA-1 (sarcoma tissue) mean tumor volume (mm^3) Day 4 [4]: 208.13 mm^3 | SJSA-1 (sarcoma tissue) mean tumor volume (mm^3) Day 7 [4]: 554.02 mm^3 | SJSA-1 (sarcoma tissue) mean tumor volume (mm^3) Day 10 [4]: 706.21 mm^3 | Mouse weight (%) on Day 14 [4]: −6.9% | SJSA-1 (sarcoma tissue) growth rate (%) on Day 14 [4]: 1005.49% | SJSA-1 (sarcoma tissue) mean tumor volume (mm^3) Day 14 [4]: 1319.7 mm^3 | tumor suppression effect (in words) ([4]; 30 mg/kg, SJSA-1 model, Example 40): neither MI-6PEG-AAGP-D2 nor MI-6PEG-AAN-PAB-Belotecan had a satisfactory tumor suppression effect | Percentage of release efficiency (%) Ovarian cancer tissue (A2780) ([5]; Table 5): 75.3% | Percentage of release efficiency (%) Non-small cell lung cancer tissue (A549) ([6]; Table 5): 79.9%

CCCN(CCc1c2c(nc3ccccc13)-c1cc3c(c(=O)n1C2)COC(=O)[C@]3(O)CC)C(=O)[C@H](CC(C)C)NC(=O)[C@H](CC(N)=O)NC(=O)[C@H](C)NC(=O)[C@H](C)NC(=O)CCOCCOCCOCCOCCOCCOCCNC(=O)CCN1C(=O)C=CC1=O [MI-6PEG-AANL-D3] ({Propanoyl(3-maleimido)-PEG6}-AANL-X4)
Mouse weight (%) [2, 10]: +18% | colo320 (colorectal cancer cell) growth rate (%) [2, 10]: 1088.75% | colo320 (colorectal cancer cell) mean tumor volume (mm^3) [2, 10]: 1279.8 mm^3 | Mouse weight (%) [2, 11]: +18% | colo320 (colorectal cancer cell) growth rate (%) [2, 11]: 641.35% | colo320 (colorectal cancer cell) mean tumor volume (mm^3) [2, 11]: 753.9 mm^3 | MTD at 14 d ([3]; Table 9): 200 mg/kg | SJSA-1 (sarcoma tissue) mean tumor volume (mm^3) Day 1 [4]: 137.17 mm^3 | SJSA-1 (sarcoma tissue) mean tumor volume (mm^3) Day 4 [4]: 436.65 mm^3 | SJSA-1 (sarcoma tissue) mean tumor volume (mm^3) Day 7 [4]: 735.18 mm^3 | SJSA-1 (sarcoma tissue) mean tumor volume (mm^3) Day 10 [4]: 1111.34 mm^3 | Mouse weight (%) on Day 14 [4]: +4.2% | SJSA-1 (sarcoma tissue) growth rate (%) on Day 14 [4]: 1316.37% | SJSA-1 (sarcoma tissue) mean tumor volume (mm^3) Day 14 [4]: 1805.67 mm^3 | Percentage of release efficiency (%) Ovarian cancer tissue (A2780) ([5]; Table 10): 69.5% | Percentage of release efficiency (%) Non-small cell lung cancer tissue (A549) ([6]; Table 10): 66.8%

CCCCN(CCc1c2c(nc3ccccc13)-c1cc3c(c(=O)n1C2)COC(=O)[C@]3(O)CC)C(=O)[C@H](CC(C)C)NC(=O)[C@H](CC(N)=O)NC(=O)[C@H](C)NC(=O)[C@H](C)NC(=O)CCOCCOCCOCCOCCOCCOCCNC(=O)CCN1C(=O)C=CC1=O [MI-6PEG-AANL-D4] ({Propanoyl(3-maleimido)-PEG6}-AANL-X2)
Mouse weight (%) [2, 10]: +17% | colo320 (colorectal cancer cell) growth rate (%) [2, 10]: 1081.25% | colo320 (colorectal cancer cell) mean tumor volume (mm^3) [2, 10]: 1271.1 mm^3 | Mouse weight (%) [2, 11]: +18% | colo320 (colorectal cancer cell) growth rate (%) [2, 11]: 832.33% | colo320 (colorectal cancer cell) mean tumor volume (mm^3) [2, 11]: 978.4 mm^3 | Mouse weight (%) [2, 9]: +18% | colo320 (colorectal cancer cell) growth rate (%) [2, 9]: 832.33% | colo320 (colorectal cancer cell) mean tumor volume (mm^3) [2, 9]: 978.4 mm^3 | SJSA-1 (sarcoma tissue) mean tumor volume (mm^3) Day 1 [4]: 142.01 mm^3 | SJSA-1 (sarcoma tissue) mean tumor volume (mm^3) Day 4 [4]: 486.37 mm^3 | SJSA-1 (sarcoma tissue) mean tumor volume (mm^3) Day 7 [4]: 739.25 mm^3 | SJSA-1 (sarcoma tissue) mean tumor volume (mm^3) Day 10 [4]: 1068.21 mm^3 | Mouse weight (%) on Day 14 [4]: +2.3% | SJSA-1 (sarcoma tissue) growth rate (%) on Day 14 [4]: 1137.43% | SJSA-1 (sarcoma tissue) mean tumor volume (mm^3) Day 14 [4]: 1615.26 mm^3 | Percentage of release efficiency (%) Ovarian cancer tissue (A2780) ([5]; Table 10): 66.7% | Percentage of release efficiency (%) Non-small cell lung cancer tissue (A549) ([6]; Table 10): 77.7%

CC[C@@]1(O)C(=O)OCc2c1cc1n(c2=O)Cc2c-1nc1ccccc1c2CCN(CC(C)C)C(=O)[C@H](CC(C)C)NC(=O)[C@H](CC(N)=O)NC(=O)[C@H](C)NC(=O)[C@H](C)NC(=O)CCOCCOCCOCCOCCOCCOCCNC(=O)CCN1C(=O)C=CC1=O [MI-6PEG-AANL-D5] ({Propanoyl(3-maleimido)-PEG6}-AANL-X5)
Mouse weight (%) [2, 10]: +19% | colo320 (colorectal cancer cell) growth rate (%) [2, 10]: 1027.54% | colo320 (colorectal cancer cell) mean tumor volume (mm^3) [2, 10]: 1257.2 mm^3 | Mouse weight (%) [2, 11]: +19% | colo320 (colorectal cancer cell) growth rate (%) [2, 11]: 643.05% | colo320 (colorectal cancer cell) mean tumor volume (mm^3) [2, 11]: 755.9 mm^3 | SJSA-1 (sarcoma tissue) mean tumor volume (mm^3) Day 1 [4]: 139.89 mm^3 | SJSA-1 (sarcoma tissue) mean tumor volume (mm^3) Day 4 [4]: 429.56 mm^3 | SJSA-1 (sarcoma tissue) mean tumor volume (mm^3) Day 7 [4]: 658.17 mm^3 | SJSA-1 (sarcoma tissue) mean tumor volume (mm^3) Day 10 [4]: 876.45 mm^3 | Mouse weight (%) on Day 14 [4]: −1.1% | SJSA-1 (sarcoma tissue) growth rate (%) on Day 14 [4]: 979.44% | SJSA-1 (sarcoma tissue) mean tumor volume (mm^3) Day 14 [4]: 1370.14 mm^3 | Percentage of release efficiency (%) Ovarian cancer tissue (A2780) ([5]; Table 10): 74.3% | Percentage of release efficiency (%) Non-small cell lung cancer tissue (A549) ([6]; Table 10): 85.5%
